Measurements as given in PubChem BioAssay AID2060886 (Molecular Pharmacology Branch, DTP, NCI, 2025).

System: 653999-131-R-J2-PDC complex spheroids, growth inhibition
Experiment: Anticancer human tumor 653999-131-R-J2-PDC patient-derived lung adenocarcinoma cell line growth inhibition [RAS]
Details: for IC50: curve of first compound; for viability, T/C: stronger effect = lower value; active = viability on the fitted dose curve at most 10% of control; inactive = the rest
How it was run: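 Multi-cell-type spheroids: tumor cells plus HUVEC endothelial cells and mesenchymal stem cells. RAS-pathway inhibitors were combined with targeted agents, each dosed in half-log steps down from clinical Cmax, or from 10 microM when Cmax was unknown.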

[1] = second compound 0.000949 µM, first compound 0.00316 µM
[2] = second compound 0.000949 µM, first compound 0.01 µM
[3] = second compound 0.000949 µM, first compound 0.0316 µM
[4] = second compound 0.000949 µM, first compound 0.1 µM
[5] = second compound 0.000949 µM, first compound 0.316 µM
[6] = second compound 0.000949 µM, first compound 1 µM
[7] = second compound 0.003 µM, first compound 0.00316 µM
[8] = second compound 0.003 µM, first compound 0.01 µM
[9] = second compound 0.003 µM, first compound 0.0316 µM
[10] = second compound 0.003 µM, first compound 0.1 µM
[11] = second compound 0.003 µM, first compound 0.316 µM
[12] = second compound 0.003 µM, first compound 1 µM
[13] = second compound 0.00949 µM, first compound 0.00316 µM
[14] = second compound 0.00949 µM, first compound 0.01 µM
[15] = second compound 0.00949 µM, first compound 0.0316 µM
[16] = second compound 0.00949 µM, first compound 0.1 µM
[17] = second compound 0.00949 µM, first compound 0.316 µM
[18] = second compound 0.00949 µM, first compound 1 µM
[19] = second compound 0.03 µM, first compound 0.00316 µM
[20] = second compound 0.03 µM, first compound 0.01 µM
[21] = second compound 0.03 µM, first compound 0.0316 µM
[22] = second compound 0.03 µM, first compound 0.1 µM
[23] = second compound 0.03 µM, first compound 0.316 µM
[24] = second compound 0.03 µM, first compound 1 µM
[25] = second compound 0.0949 µM, first compound 0.00316 µM
[26] = second compound 0.0949 µM, first compound 0.01 µM
[27] = second compound 0.0949 µM, first compound 0.0316 µM
[28] = second compound 0.0949 µM, first compound 0.1 µM
[29] = second compound 0.0949 µM, first compound 0.316 µM
[30] = second compound 0.0949 µM, first compound 1 µM
[31] = second compound 0.3 µM, first compound 0.00316 µM
[32] = second compound 0.3 µM, first compound 0.01 µM
[33] = second compound 0.3 µM, first compound 0.0316 µM
[34] = second compound 0.3 µM, first compound 0.1 µM
[35] = second compound 0.3 µM, first compound 0.316 µM
[36] = second compound 0.3 µM, first compound 1 µM
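Also: spheroids exposed to the agents for seven days before the readout.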

C=CC(=O)N1CCN(c2nc(OCC3CCCN3C)nc3c(F)c(-c4nc(N)cc(C)c4C(F)(F)F)c(Cl)cc23)C(C)C1 (stereo unspecified) + CCn1c(-c2cc(N3CCN(C)CC3)cnc2C(C)OC)c2c3cc(ccc31)-c1csc(n1)CC(NC(=O)C1CC1C)C(=O)N1CCCC(N1)C(=O)OCC(C)(C)C2
< 3.16 nM: IC50 (second compound 0.03 µM) | IC50 (second compound 0.0949 µM) | IC50 (second compound 0.3 µM)
32.4 nM: IC50 (second compound 0.00949 µM)
> 1000 nM: IC50 (second compound 0.000949 µM) | IC50 (second compound 0.003 µM)
inactive: viability, T/C [1] 83.2% | viability, T/C [2] 82.7% | viability, T/C [3] 82.1% | viability, T/C [4] 78.4% | viability, T/C [5] 92% | viability, T/C [6] 86.1% | viability, T/C [7] 57.9% | viability, T/C [8] 63% | viability, T/C [9] 59.1% | viability, T/C [10] 65.7% | viability, T/C [11] 63.3% | viability, T/C [12] 75.6% | viability, T/C [13] 50% | viability, T/C [14] 57.5% | viability, T/C [15] 50.2% | viability, T/C [16] 40.4% | viability, T/C [17] 40.2% | viability, T/C [18] 42.6% | viability, T/C [19] 46.5% | viability, T/C [20] 35.3% | viability, T/C [21] 43.2% | viability, T/C [22] 32% | viability, T/C [23] 37.3% | viability, T/C [24] 34.9% | viability, T/C [25] 28.9% | viability, T/C [26] 29.4% | viability, T/C [27] 26.7% | viability, T/C [28] 38.9% | viability, T/C [29] 38.6% | viability, T/C [30] 35.9% | viability, T/C [31] 29.5% | viability, T/C [32] 27.5% | viability, T/C [33] 21.8% | viability, T/C [34] 32.6% | viability, T/C [35] 28.3% | viability, T/C [36] 26.1%

CC1(C)CCC(Nc2ncc(C(F)(F)F)c(-c3c[nH]c4c(P(C)(C)=O)c(C#N)ccc34)n2)CN1 (stereo unspecified) + CCn1c(-c2cc(N3CCN(C)CC3)cnc2C(C)OC)c2c3cc(ccc31)-c1csc(n1)CC(NC(=O)C1CC1C)C(=O)N1CCCC(N1)C(=O)OCC(C)(C)C2
< 0.949 nM: IC50 (second compound 0.003 µM) | IC50 (second compound 0.00949 µM) | IC50 (second compound 0.03 µM) | IC50 (second compound 0.0949 µM) | IC50 (second compound 0.3 µM)
> 300 nM: IC50 (second compound 0.000949 µM)
inactive: viability, T/C (second compound 0.000949 µM, first compound 0.000949 µM) 60.9% | viability, T/C (second compound 0.000949 µM, first compound 0.003 µM) 58.4% | viability, T/C (second compound 0.000949 µM, first compound 0.00949 µM) 56.4% | viability, T/C (second compound 0.000949 µM, first compound 0.03 µM) 45.1% | viability, T/C (second compound 0.000949 µM, first compound 0.0949 µM) 56.4% | viability, T/C (second compound 0.000949 µM, first compound 0.3 µM) 61.2% | viability, T/C (second compound 0.003 µM, first compound 0.000949 µM) 51% | viability, T/C (second compound 0.003 µM, first compound 0.003 µM) 41.6% | viability, T/C (second compound 0.003 µM, first compound 0.00949 µM) 40.8% | viability, T/C (second compound 0.003 µM, first compound 0.03 µM) 44.7% | viability, T/C (second compound 0.003 µM, first compound 0.0949 µM) 41.1% | viability, T/C (second compound 0.003 µM, first compound 0.3 µM) 38.2% | viability, T/C (second compound 0.00949 µM, first compound 0.000949 µM) 35.9% | viability, T/C (second compound 0.00949 µM, first compound 0.003 µM) 24.3% | viability, T/C (second compound 0.00949 µM, first compound 0.00949 µM) 21.4% | viability, T/C (second compound 0.00949 µM, first compound 0.03 µM) 21.6% | viability, T/C (second compound 0.00949 µM, first compound 0.0949 µM) 27.6% | viability, T/C (second compound 0.00949 µM, first compound 0.3 µM) 22.3% | viability, T/C (second compound 0.03 µM, first compound 0.000949 µM) 17.8% | viability, T/C (second compound 0.03 µM, first compound 0.003 µM) 18.3% | viability, T/C (second compound 0.03 µM, first compound 0.00949 µM) 17.4% | viability, T/C (second compound 0.03 µM, first compound 0.03 µM) 13.4% | viability, T/C (second compound 0.03 µM, first compound 0.0949 µM) 15.9% | viability, T/C (second compound 0.03 µM, first compound 0.3 µM) 16.5% | viability, T/C (second compound 0.0949 µM, first compound 0.000949 µM) 16.4% | viability, T/C (second compound 0.0949 µM, first compound 0.003 µM) 17.8% | viability, T/C (second compound 0.0949 µM, first compound 0.00949 µM) 14.5% | viability, T/C (second compound 0.0949 µM, first compound 0.03 µM) 14.4% | viability, T/C (second compound 0.0949 µM, first compound 0.0949 µM) 14.1% | viability, T/C (second compound 0.0949 µM, first compound 0.3 µM) 16.3% | viability, T/C (second compound 0.3 µM, first compound 0.000949 µM) 14.5% | viability, T/C (second compound 0.3 µM, first compound 0.003 µM) 15.2% | viability, T/C (second compound 0.3 µM, first compound 0.00949 µM) 14.7% | viability, T/C (second compound 0.3 µM, first compound 0.03 µM) 14.8% | viability, T/C (second compound 0.3 µM, first compound 0.0949 µM) 13.7% | viability, T/C (second compound 0.3 µM, first compound 0.3 µM) 15.7%

C=CC(=O)Nc1cc(Nc2nccc(-c3cn(C)c4ccccc34)n2)c(OC)cc1N(C)CCN(C)C + CCn1c(-c2cccnc2C(C)OC)c2c3cc(ccc31)N1CCOC(CC(NC(=O)C(C(C)C)N(C)C(=O)C3(F)CCN(C(=O)C#CC(C)(C)N(C)C)CC3)C(=O)N3CCCC(N3)C(=O)OCC(C)(C)C2)C1
717 nM: IC50 (second compound 0.0949 µM)
697 nM: IC50 (second compound 0.3 µM)
inactive: viability, T/C [1] 86.2% | viability, T/C [2] 82.3% | viability, T/C [3] 97.7% | viability, T/C [4] 64.7% | viability, T/C [5] 64.2% | viability, T/C [6] 49.2% | viability, T/C [7] 90.1% | viability, T/C [8] 95.8% | viability, T/C [9] 86.3% | viability, T/C [10] 67.1% | viability, T/C [11] 52.5% | viability, T/C [12] 37.8% | viability, T/C [13] 80.5% | viability, T/C [14] 84.8% | viability, T/C [15] 93.2% | viability, T/C [16] 85.7% | viability, T/C [17] 55% | viability, T/C [18] 45% | viability, T/C [19] 87.1% | viability, T/C [20] 97.6% | viability, T/C [21] 84.2% | viability, T/C [22] 82.5% | viability, T/C [23] 52.6% | viability, T/C [24] 43.6% | viability, T/C [25] 79.4% | viability, T/C [26] 76.5% | viability, T/C [27] 115% | viability, T/C [28] 89.8% | viability, T/C [29] 59.6% | viability, T/C [30] 46.1% | viability, T/C [31] 78.7% | viability, T/C [32] 104% | viability, T/C [33] 94.8% | viability, T/C [34] 94.1% | viability, T/C [35] 61.7% | viability, T/C [36] 44.6%
> 1000 nM: IC50 (second compound 0.000949 µM)
450 nM: IC50 (second compound 0.03 µM)
318 nM: IC50 (second compound 0.003 µM)
562 nM: IC50 (second compound 0.00949 µM)
